Measured values published in patent publication US10172832B2, “Amide derivatives of N-urea substituted amino acids as formyl peptide receptor like-1 (FPRL-1) receptor modulators” (Allergan, Inc., priority 2011, dated 2019).

Molecular target: T1, FPRL-1 (Homo sapiens, UniProt P25090)
T1 construct: expressed in transfected cells
T1 sequence (P25090 1-351): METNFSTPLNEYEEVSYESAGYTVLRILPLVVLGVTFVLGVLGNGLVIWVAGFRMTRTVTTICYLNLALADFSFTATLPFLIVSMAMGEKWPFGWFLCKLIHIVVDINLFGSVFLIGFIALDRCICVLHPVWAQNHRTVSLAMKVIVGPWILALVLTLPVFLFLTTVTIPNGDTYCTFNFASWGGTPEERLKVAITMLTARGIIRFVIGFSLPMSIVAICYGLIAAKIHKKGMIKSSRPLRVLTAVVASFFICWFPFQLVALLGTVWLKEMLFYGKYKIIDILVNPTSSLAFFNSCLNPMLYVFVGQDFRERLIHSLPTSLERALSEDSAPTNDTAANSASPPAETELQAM
Assay: compound-induced calcium activity on FLIPR Tetra in CHO-Gα16 cells stably expressing FPRL1
Assay type: cell-based
Settings: for FPRL-1 Ga16-CHO (Rel. eff.): relative efficacy; for EC50: tested 0.61 to 10,000 nM, read-out: FPRL-1 Ga16-CHO EC50
Method: CHO-Gα16 cells stably expressing FPRL1 were cultured in (F12, 10% FBS, 1% PSA, 400 μg/ml geneticin and 50 μg/ml hygromycin) and HEK-Gqi5 cells stable expressing FPR1 were cultured in (DMEM high glucose, 10% FBS, 1% PSA, 400 μg/ml geneticin and 50 μg/ml hygromycin). In general, the day before the experiment, 18,000 cells/well were plated in a 384-well clear bottom poly-d-lysine coated plate. The following day the screening compound-induced calcium activity was assayed on the FLIPR^Tetra. The drug plates were prepared in 384-well microplates using the EP3 and the MultiPROBE robotic liquid handling systems. Compounds were tested at concentrations ranging from 0.61 to 10,000 nM. Results are expressed as EC50 (nM) and efficacy values.

| Structure (SMILES) | FPRL-1 Ga16-CHO (Rel. eff.) | EC50 [nM] |
| --- | --- | --- |
| CCC[C@H](NC(=O)Nc1ccc(Br)cc1F)C(=O)NCC(N)=O [Compound 31, (2S)-N-(2-amino-2-oxoethyl)-2-{[(4-bromo-2-fluorophenyl]carbamoyl}amino)pentanamide] | (0.98) | 5.2 |
| CC(C)C[C@H](NC(=O)Nc1ccc(Br)cc1)C(=O)NCC(N)=O [Compound 32, (2S)-N-(2-amino-2-oxoethyl)-2-{[(4-bromophenyl)carbamoyl]amino}-4-methylpentanamide] | (1.08) | 1.05 |
| CC(C)C[C@H](NC(=O)Nc1ccc(Br)cc1F)C(=O)NCC(=O)OC(C)(C)C [Compound 33, tert-butyl{[(2S)-2-{[(4-bromo-2-fluorophenyl)carbamoyl]amino}-4-methylpentanoyl]amino}acetate] | (1.19) | 134 |
| CC(C)C[C@H](NC(=O)Nc1ccc(Br)cc1F)C(=O)NCC(=O)O [Compound 34, {[(2S)-2-{[(4-bromo-2-fluorophenyl)carbamoyl]amino}-4-methylpentanoyl]amino}acetic acid] | (1.10) | 3.6 |
| CC(=O)CNC(=O)[C@H](CC(C)C)NC(=O)Nc1ccc(Br)cc1F [Compound 35, (2S)-2-{[(4-bromo-2-fluorophenyl)carbamoyl]amino}-4-methyl-N-(2-oxopropyl)pentanamide] | (0.99) | 20 |
| CC(C)C[C@H](NC(=O)Nc1ccc(Br)cc1F)C(=O)NCCO [Compound 36, (2S)-2-{[(4-bromo-2-fluorophenyl)carbamoyl]amino}-N-(2-hydroxyethyl)-4-methylpentanamide] | (1.05) | 77 |
| CC(C)C[C@H](NC(=O)Nc1ccc(Br)cc1F)C(=O)N[C@@H](C)C(=O)OC(C)(C)C [Compound 38, tert-butyl(2S)-2-{[(2S)-2-{[(4-bromo-2-fluorophenyl)carbamoyl]amino}-4-methylpentanoyl]amino}propanoate] | (1.00) | 174 |
| CC(C)C[C@H](NC(=O)Nc1ccc(Br)cc1F)C(=O)N[C@@H](C)C(=O)O [Compound 39, (2S)-2-{[(2S)-2-{[(4-bromo-2-fluorophenyl)carbamoyl]amino}-4-methylpentanoyl]amino}propanoic acid] | (0.95) | 12 |
| CC(C)C[C@H](NC(=O)Nc1ccc(Br)cc1F)C(=O)N[C@@H](C)C(N)=O [Compound 40, (2S)-N-[(1S)-2-amino-1-methyl-2-oxoethyl]-2-{[(4-bromo-2-fluorophenyl)carbamoyl]amino}-4-methylpentanamide] | (1.05) | 31 |
| CC(C)C[C@H](NC(=O)Nc1ccc(Br)cc1)C(=O)N[C@@H](C)C(=O)OC(C)(C)C [Compound 41] | (0.96) | 147 |
| CC(C)C[C@H](NC(=O)Nc1ccc(Br)cc1)C(=O)N[C@H](C(=O)OC(C)(C)C)C(C)C [Compound 42, tert-butyl(2S)-2-{[(2S)-2-{[(4-bromophenyl)carbamoyl]amino}-4-methylpentanoyl]amino}-3-methylbutanoate] | (0.98) | 68 |
| CC(C)C[C@H](NC(=O)Nc1ccc(Br)cc1)C(=O)N[C@@H](C)C(=O)O [Compound 43, (2S)-2-{[(2S)-2-{[(4-bromophenyl)carbamoyl]amino}-4-methylpentanoyl]amino}propanoic acid] | (1.05) | 11 |
| CC(C)C[C@H](NC(=O)Nc1ccc(Br)cc1)C(=O)N[C@H](C(=O)O)C(C)C [Compound 44, (2S)-2-{[(2S)-2-{[(4-bromophenyl)carbamoyl]amino}-4-methylpentanoyl]amino}-3-methylbutanoic acid] | (1.13) | 1.83 |
